The values below come from the supplement of paper PMC10307832.

Assay in all cases: relative viability (nuclei count vs DMSO), 5 days (fraction); higher = more cells survive
Compound in test [1]: C(C(=O)C(=O)O)Br [Bromopyruvate] + COc1cc2c(Oc3ccc(NC(=O)C4(C(=O)Nc5ccc(F)cc5)CC4)cc3F)ccnc2cc1OCCCN1CCOCC1 [Foretinib] (partner 0.25 µM)
An outline of the steps: (§1)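 Lung cancer cell lines in 1536-well plates got either a single drug or a fixed anchor-drug dose together with five library-drug doses (not always all listed) in √10 steps, by pin tool, on the day after seeding. Nuclei were counted after 5 days, and relative viability is the treated-to-vehicle ratio of nuclei counts. Values are medians of duplicate plates.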

Compound in test [2]: C(C(=O)C(=O)O)Br [Bromopyruvate] + CS(=O)(=O)N1CCN(Cc2cc3nc(-c4cccc5[nH]ncc45)nc(N4CCOCC4)c3s2)CC1 [Pictilisib] (partner 1 µM)
An outline of the steps:
as §1

Compound in test [3]: CC(O)(CS(=O)(=O)c1ccc(F)cc1)C(=O)Nc1ccc(C#N)c(C(F)(F)F)c1 [Bicalutamide] + Cc1cc(Nc2cc(N3CCN(C)CC3)nc(Sc3ccc(NC(=O)C4CC4)cc3)n2)n[nH]1 [Tozasertib] (partner 0.1 µM)
An outline of the steps: as §1

Compound in the test “Bicalutamide + Olaparib”: CC(O)(CS(=O)(=O)c1ccc(F)cc1)C(=O)Nc1ccc(C#N)c(C(F)(F)F)c1 [Bicalutamide] + O=C(c1cc(Cc2n[nH]c(=O)c3ccccc23)ccc1F)N1CCN(C(=O)C2CC2)CC1 [Olaparib] (partner 8 µM)
An outline of the steps: as §1

For NCI-H596, the relative viability in test [1] (first compound 1 µM) is 0.86; in test [1] (first compound 3.162 µM), 0.946; in test [1] (first compound 10 µM) it was 1.02; in test [1] (first compound 31.62 µM), 0.685; in test [1] (first compound 100 µM) it was 0.232; in test [2] (first compound 1 µM), 0.431. In addition, the relative viability stood at 0.396 in test [2] (first compound 3.162 µM); 0.419 in test [2] (first compound 10 µM); 0.419 in test [2] (first compound 31.62 µM); 0.423 in test [2] (first compound 100 µM); 0.897 in test [3] (first compound 0.08 µM); 0.82 in test [3] (first compound 0.253 µM). Also, the relative viability in test [3] (first compound 0.8 µM) is 0.998; in test [3] (first compound 2.53 µM), 0.989; with Bicalutamide + Olaparib (first compound 0.08 µM) it was 0.604; with Bicalutamide + Olaparib (first compound 0.253 µM), 0.767; with Bicalutamide + Olaparib (first compound 0.8 µM), 0.799; in the test with Bicalutamide + Olaparib (first compound 2.53 µM) it was 0.844.
On to SK-LU-1, for which the relative viability was 0.846 in test [1] (first compound 1 µM); 0.867 in test [1] (first compound 3.162 µM); 0.954 in test [1] (first compound 10 µM); 0.671 in test [1] (first compound 31.62 µM); 0.799 in test [1] (first compound 100 µM); 0.545 in test [2] (first compound 1 µM). Besides, the relative viability in test [2] (first compound 3.162 µM) turned out to be 0.65; in test [2] (first compound 10 µM) it was 0.616; in test [2] (first compound 31.62 µM) it was 0.551; in test [2] (first compound 100 µM), 0.53; in test [3] (first compound 0.08 µM) it was 0.341; in test [3] (first compound 0.253 µM), 0.291. Besides, the relative viability was 0.295 in test [3] (first compound 0.8 µM); 0.319 in test [3] (first compound 2.53 µM); 0.502 in the test with Bicalutamide + Olaparib (first compound 0.08 µM); 0.482 with Bicalutamide + Olaparib (first compound 0.253 µM); 0.633 with Bicalutamide + Olaparib (first compound 0.8 µM); 0.486 with Bicalutamide + Olaparib (first compound 2.53 µM).
As for A-427, the relative viability in test [1] (first compound 1 µM) came to 0.983; in test [1] (first compound 3.162 µM) it was 1.21; in test [1] (first compound 10 µM) it was 1.18; in test [1] (first compound 31.62 µM), 0.799; in test [1] (first compound 100 µM), 0.885; in test [2] (first compound 1 µM), 0.678. Besides, the relative viability amounted to 0.809 in test [2] (first compound 3.162 µM); 0.483 in test [2] (first compound 10 µM); 0.746 in test [2] (first compound 31.62 µM); 0.718 in test [2] (first compound 100 µM); 0.232 in test [3] (first compound 0.08 µM); 0.183 in test [3] (first compound 0.253 µM). Also, the relative viability was found to be 0.209 in test [3] (first compound 0.8 µM); 0.165 in test [3] (first compound 2.53 µM); 0.704 in the test with Bicalutamide + Olaparib (first compound 0.08 µM); 0.692 with Bicalutamide + Olaparib (first compound 0.253 µM); 0.842 with Bicalutamide + Olaparib (first compound 0.8 µM); 0.707 with Bicalutamide + Olaparib (first compound 2.53 µM).
For the cell line NCI-H460, the relative viability was found to be 0.928 in test [1] (first compound 1 µM); 1.01 in test [1] (first compound 3.162 µM); 1.15 in test [1] (first compound 10 µM); 1.02 in test [1] (first compound 31.62 µM); 1 in test [1] (first compound 100 µM); 0.483 in test [2] (first compound 1 µM). In addition, the relative viability was found to be 0.315 in test [2] (first compound 3.162 µM); 0.419 in test [2] (first compound 10 µM); 0.358 in test [2] (first compound 31.62 µM); 0.349 in test [2] (first compound 100 µM); 0.521 in test [3] (first compound 0.08 µM); 0.39 in test [3] (first compound 0.253 µM). The relative viability in test [3] (first compound 0.8 µM) is 0.434; in test [3] (first compound 2.53 µM) it was 0.52; with Bicalutamide + Olaparib (first compound 0.08 µM), 0.439; with Bicalutamide + Olaparib (first compound 0.253 µM) it was 0.391; in the test with Bicalutamide + Olaparib (first compound 0.8 µM), 0.436; in the test with Bicalutamide + Olaparib (first compound 2.53 µM) it was 0.383.
As to NCI-H1703, the relative viability in test [1] (first compound 1 µM) is 0.327; in test [1] (first compound 3.162 µM) it was 0.397; in test [1] (first compound 10 µM) it was 0.364; in test [1] (first compound 31.62 µM), 0.367; in test [1] (first compound 100 µM), 0.356; in test [2] (first compound 1 µM), 0.238. Further, the relative viability in test [2] (first compound 3.162 µM) is 0.226; in test [2] (first compound 10 µM), 0.256; in test [2] (first compound 31.62 µM) it was 0.271; in test [2] (first compound 100 µM), 0.269; in the test with Bicalutamide + Olaparib (first compound 0.08 µM), 0.431; in the test with Bicalutamide + Olaparib (first compound 0.253 µM), 0.387. Further, the relative viability with Bicalutamide + Olaparib (first compound 0.8 µM) is 0.391; with Bicalutamide + Olaparib (first compound 2.53 µM) it was 0.231.
As to NCI-H1792, the relative viability was found to be 0.306 in test [2] (first compound 1 µM); 0.29 in test [2] (first compound 3.162 µM); 0.328 in test [2] (first compound 10 µM); 0.317 in test [2] (first compound 31.62 µM); 0.212 in test [2] (first compound 100 µM); 0.493 with Bicalutamide + Olaparib (first compound 0.08 µM). Besides, the figures for the relative viability with Bicalutamide + Olaparib (first compound 0.253 µM), with Bicalutamide + Olaparib (first compound 0.8 µM) and with Bicalutamide + Olaparib (first compound 2.53 µM) were 0.365, 0.39 and 0.257, respectively.
For the cell line Calu-6, the relative viability is 0.9 in test [1] (first compound 1 µM); 0.891 in test [1] (first compound 3.162 µM); 0.938 in test [1] (first compound 10 µM); 0.856 in test [1] (first compound 31.62 µM); 0.613 in test [1] (first compound 100 µM); 0.898 in test [2] (first compound 1 µM). The relative viability came out at 0.958 in test [2] (first compound 3.162 µM); 0.966 in test [2] (first compound 10 µM); 0.743 in test [2] (first compound 31.62 µM); 0.829 in test [2] (first compound 100 µM); 0.667 in the test with Bicalutamide + Olaparib (first compound 0.08 µM); 0.52 with Bicalutamide + Olaparib (first compound 0.253 µM). Moreover, the relative viability is 0.586 with Bicalutamide + Olaparib (first compound 0.8 µM) and 0.604 with Bicalutamide + Olaparib (first compound 2.53 µM).
With SW 1573, the relative viability came out at 0.741 in test [1] (first compound 1 µM); 0.845 in test [1] (first compound 3.162 µM); 0.982 in test [1] (first compound 10 µM); 0.996 in test [1] (first compound 31.62 µM); 0.868 in test [1] (first compound 100 µM); 0.463 in test [2] (first compound 1 µM). Further, the relative viability in test [2] (first compound 3.162 µM) turned out to be 0.438; in test [2] (first compound 10 µM), 0.46; in test [2] (first compound 31.62 µM), 0.521; in test [2] (first compound 100 µM), 0.303; in test [3] (first compound 0.08 µM) it was 0.205; in test [3] (first compound 0.8 µM) it was 0.231. Besides, the relative viability came to 0.135 in test [3] (first compound 2.53 µM); 0.542 with Bicalutamide + Olaparib (first compound 0.08 µM); 0.525 with Bicalutamide + Olaparib (first compound 0.253 µM); 0.428 with Bicalutamide + Olaparib (first compound 0.8 µM); 0.472 with Bicalutamide + Olaparib (first compound 2.53 µM).
